Assay results: ChEMBL document CHEMBL3608289, “Miltirone Is a Dual Inhibitor of P-Glycoprotein and Cell Growth in Doxorubicin-Resistant HepG2 Cells” (J Nat Prod, 2015)
Active and inactive are the calls of the source. No cut-off for these calls is given here.

Key:
HepG2 [1] = assay: Induction of oxidative stress in human doxorubicin-resistant HepG2 cells expressing p-gp assessed as increase of GSH/GSSG ratio at 1.56 to 3.12 uM after 24 hrs using DTNB by enzymatic kinetic method; type: functional, cell-based
HepG2 [2] = assay: Cytotoxicity against human HepG2 cells after 24 hrs by MTT assay in presence of doxorubicin; type: functional, cell-based; conditions: HepG2, 24 h
HepG2 [3] = assay: Induction of apoptosis in human HepG2 cells assessed as activation of caspase-3/8/9 after 24 hrs by Western blotting; type: functional, cell-based
[4] = Cytotoxicity against human Hep3B cells after 24 hrs by MTT assay in presence of doxorubicin; type: functional, cell-based, Hep 3B2
[5] = target: T1, MAP kinase p38 (Homo sapiens) (UniProt O15264+Q15759+Q16539+P53778); assay: Inhibition of p38 MAPK phosphorylation in human doxorubicin-resistant HepG2 cells expressing p-gp at 1.56 to 25 uM by Western blot analysis in presence of SB203580; type: cell-based
HepG2 [6] = assay: Induction of apoptosis in human HepG2 cells assessed as activation of caspase-3/8/9 at 12.5 after 24 hrs by Western blotting in presence of trolox; type: functional, cell-based
[7] = Cytotoxicity against human Hep3B cells after 24 hrs by MTT assay; type: functional, cell-based, Hep 3B2
HepG2 [8] = assay: Increase of SAPK/JNK phosphorylation in human doxorubicin-resistant HepG2 cells expressing p-gp at 1.56 to 25 uM by Western blot analysis; type: cell-based
[9] = target: T1, MAP kinase p38 (Homo sapiens); assay: Inhibition of p38 MAPK phosphorylation in human HepG2 cells at 1.56 to 25 uM by Western blot analysis; type: cell-based
HepG2 [10] = assay: Effect on nonphosphorylated p38 MAPK level in human HepG2 cells at 25 uM by Western blot analysis; type: ADME, cell-based; conditions: hepg2, 25 µM
HepG2 [11] = assay: Competitive inhibition of p-glycoprotein in human doxorubicin-resistant HepG2 cells assessed as reduction of doxorubicin efflux after 1 hr by primary Dixon plot analysis; type: cell-based
HepG2 [12] = assay: Induction of ROS generation in human HepG2 cells at 25 uM after 15 to 30 mins using H2DCFH dye by confocal microscopy in presence of PEG-catalase; type: functional, cell-based
HepG2 [13] = assay: Increase of SAPK/JNK phosphorylation in human doxorubicin-resistant HepG2 cells expressing p-gp at 1.56 to 25 uM by Western blot analysis in presence of SB203580; type: cell-based
HepG2 [14] = assay: Cytotoxicity against human HepG2 cells after 24 hrs by MTT assay; type: functional, cell-based; conditions: HepG2, 24 h
HepG2 [15] = assay: Induction of apoptosis in human HepG2 cells assessed as activation of caspase-3/8/9 at 12.5 after 24 hrs by Western blotting in presence of Z-VAD-FMK; type: functional, cell-based
HepG2 [16] = assay: Induction of apoptosis in human HepG2 cells assessed as increase in PARP cleavage after 24 hrs by Western blotting; type: functional, cell-based
HepG2 [17] = assay: Induction of oxidative stress in human HepG2 cells assessed as decrease of GSH level per gram of protein at 25 uM after 24 hrs using DTNB by enzymatic kinetic method relative to control; type: functional
[18] = target: ATP-dependent translocase ABCB1 (Homo sapiens, UniProt P08183); assay: Inhibition of p-glycoprotein in human doxorubicin-resistant HepG2 cells assessed as reduction of doxorubicin efflux after 1 hr by flow cytometry; type: cell-based; conditions: hepg2, 1 h
Sequence of ATP-dependent translocase ABCB1 (P08183 whole entry): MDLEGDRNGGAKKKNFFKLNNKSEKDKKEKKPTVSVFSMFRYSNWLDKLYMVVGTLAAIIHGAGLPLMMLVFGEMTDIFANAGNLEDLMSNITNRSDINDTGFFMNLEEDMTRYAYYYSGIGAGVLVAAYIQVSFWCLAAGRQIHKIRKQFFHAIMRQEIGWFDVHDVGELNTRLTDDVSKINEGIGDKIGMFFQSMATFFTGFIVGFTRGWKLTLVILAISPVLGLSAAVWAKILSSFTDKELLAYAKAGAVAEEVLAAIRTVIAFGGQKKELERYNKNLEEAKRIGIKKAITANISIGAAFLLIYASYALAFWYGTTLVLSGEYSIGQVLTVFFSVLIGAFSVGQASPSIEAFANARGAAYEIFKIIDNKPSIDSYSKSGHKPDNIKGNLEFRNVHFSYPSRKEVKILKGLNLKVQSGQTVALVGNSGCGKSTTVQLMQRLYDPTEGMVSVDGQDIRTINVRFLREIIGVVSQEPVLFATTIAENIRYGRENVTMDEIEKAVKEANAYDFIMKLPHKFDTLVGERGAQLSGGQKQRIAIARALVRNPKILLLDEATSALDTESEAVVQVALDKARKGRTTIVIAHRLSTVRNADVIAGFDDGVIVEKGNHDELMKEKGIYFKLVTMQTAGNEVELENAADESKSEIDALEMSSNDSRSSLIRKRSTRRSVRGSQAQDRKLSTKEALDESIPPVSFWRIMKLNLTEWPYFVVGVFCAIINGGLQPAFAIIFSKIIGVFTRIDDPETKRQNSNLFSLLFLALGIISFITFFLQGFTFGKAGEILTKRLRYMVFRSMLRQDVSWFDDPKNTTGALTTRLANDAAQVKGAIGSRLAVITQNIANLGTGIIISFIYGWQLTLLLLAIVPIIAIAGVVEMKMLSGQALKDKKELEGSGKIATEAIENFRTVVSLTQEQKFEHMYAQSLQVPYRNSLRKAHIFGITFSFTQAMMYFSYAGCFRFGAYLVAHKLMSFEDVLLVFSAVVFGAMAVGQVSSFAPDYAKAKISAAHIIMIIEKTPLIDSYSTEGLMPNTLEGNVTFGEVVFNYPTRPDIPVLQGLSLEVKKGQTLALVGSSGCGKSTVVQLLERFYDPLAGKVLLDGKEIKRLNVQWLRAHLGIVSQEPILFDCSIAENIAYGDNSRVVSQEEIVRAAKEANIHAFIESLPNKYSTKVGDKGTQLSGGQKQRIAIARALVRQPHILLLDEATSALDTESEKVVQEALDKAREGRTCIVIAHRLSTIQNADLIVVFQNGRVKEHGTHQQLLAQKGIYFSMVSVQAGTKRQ

[19] = target: T2, Mitogen-activated protein kinase; ERK1/ERK2 (Homo sapiens) (UniProt P27361+P28482); assay: Inhibition of ERK1/2 phosphorylation in human HepG2 cells at 1.56 to 25 uM by Western blot analysis in presence of NAC; type: cell-based
T2 sequence (P27361 whole entry, looked up): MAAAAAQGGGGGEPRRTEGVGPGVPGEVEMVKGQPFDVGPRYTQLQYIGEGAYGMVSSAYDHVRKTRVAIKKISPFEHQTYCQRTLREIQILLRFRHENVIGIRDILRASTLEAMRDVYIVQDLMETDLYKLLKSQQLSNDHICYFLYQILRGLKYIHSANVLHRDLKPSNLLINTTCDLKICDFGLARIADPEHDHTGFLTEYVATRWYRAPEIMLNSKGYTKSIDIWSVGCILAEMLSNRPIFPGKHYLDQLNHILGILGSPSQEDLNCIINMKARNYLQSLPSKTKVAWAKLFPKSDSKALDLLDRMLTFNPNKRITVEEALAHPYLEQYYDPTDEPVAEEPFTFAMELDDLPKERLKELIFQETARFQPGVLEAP
T2 sequence (P28482 whole entry, looked up): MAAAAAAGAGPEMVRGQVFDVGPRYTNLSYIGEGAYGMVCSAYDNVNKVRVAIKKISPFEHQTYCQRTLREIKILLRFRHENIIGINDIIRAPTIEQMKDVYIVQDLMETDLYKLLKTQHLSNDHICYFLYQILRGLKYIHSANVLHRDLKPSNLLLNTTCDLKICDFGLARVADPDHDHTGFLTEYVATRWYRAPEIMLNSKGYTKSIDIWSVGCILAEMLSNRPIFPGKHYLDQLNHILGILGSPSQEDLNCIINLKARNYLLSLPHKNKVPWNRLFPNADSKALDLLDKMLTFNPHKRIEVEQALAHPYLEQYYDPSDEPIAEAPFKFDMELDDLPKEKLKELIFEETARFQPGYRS

HepG2 [20] = assay: Induction of oxidative stress in human HepG2 cells assessed as decrease of GSSG level per gram of protein at 25 uM after 24 hrs using DTNB by enzymatic kinetic method relative to control; type: functional
HepG2 [21] = assay: Induction of apoptosis in human HepG2 cells assessed as activation of caspase-3/8/9 at 12.5 after 24 hrs by Western blotting in presence of Z-IETD-FMK; type: functional, cell-based
HepG2 [22] = assay: Induction of apoptosis in human doxorubicin-resistant HepG2 cells expressing p-gp assessed as activation of caspase-3/8/9 at 12.5 after 24 hrs by Western blotting in presence of Z-LEHD-FMK; type: functional, cell-based
[23] = Cytotoxicity against human PLC/PRF/5 cells after 24 hrs by MTT assay in presence of doxorubicin; type: functional, cell-based; conditions: PLC-PRF-5, 24 h
[24] = target: T2, Mitogen-activated protein kinase; ERK1/ERK2 (Homo sapiens); assay: Inhibition of ERK1/2 phosphorylation in human HepG2 cells at 1.56 to 25 uM by Western blot analysis; type: cell-based
HepG2 [25] = assay: Increase of SAPK/JNK phosphorylation in human HepG2 cells at 1.56 to 25 uM by Western blot analysis; type: cell-based
HepG2 [26] = assay: Effect on nonphosphorylated p38 MAPK level in human doxorubicin-resistant HepG2 cells expressing p-gp at 25 uM by Western blot analysis; type: ADME, cell-based; conditions: hepg2, 25 µM
HepG2 [27] = assay: Induction of ROS generation in human HepG2 cells at 25 uM after 15 to 30 mins using H2DCFH dye by confocal microscopy; type: functional, cell-based
[28] = target: T1, MAP kinase p38 (Homo sapiens); assay: Inhibition of p38 MAPK phosphorylation in human HepG2 cells at 1.56 to 25 uM by Western blot analysis in presence of NAC; type: cell-based
HepG2 [29] = assay: Induction of necrosis in human HepG2 cells assessed as LDH leakage at 25 uM after 24 hrs; type: functional, cell-based
HepG2 [30] = assay: Increase of SAPK/JNK phosphorylation in human HepG2 cells at 1.56 to 25 uM by Western blot analysis in presence of SB203580; type: cell-based

**Q.** Which Activity (HepG2 [1]) does the source give for `CC(C)C1=Cc2ccc3c(c2C(=O)C1=O)CCCC3(C)C` [MILTIRONE] here?
**A.** inactive

**Q.** And the EC50 (HepG2 [2])?
**A.** 30.9 µM

**Q.** And the Activity (HepG2 [3])?
**A.** Active

**Q.** What about the EC50 [4] of the same molecule?
**A.** 6.6 µM

**Q.** What about the inhibition [5] of the same molecule?
**A.** inactive

**Q.** And the Activity (HepG2 [6])?
**A.** inactive

**Q.** And the EC50 [7]?
**A.** 14.8 µM

**Q.** And the Activity (HepG2 [8])?
**A.** Active

**Q.** And the inhibition [9]?
**A.** Active

**Q.** And the Activity (HepG2 [10])?
**A.** Non-toxic

**Q.** And the inhibition (HepG2 [11])?
**A.** Active

**Q.** And the Activity (HepG2 [12])?
**A.** inactive

**Q.** What about the Activity (HepG2 [13]) of the same molecule?
**A.** Active

**Q.** What about the EC50 (HepG2 [14]) of the same molecule?
**A.** 7.1 µM

**Q.** What about the Activity (HepG2 [15]) of the same molecule?
**A.** inactive

**Q.** What about the Activity (HepG2 [16]) of the same molecule?
**A.** Active

**Q.** What about the Activity (HepG2 [17]) of the same molecule?
**A.** 2.4 µmol

**Q.** And the “inhibition (INH)” value [18]?
**A.** Active

**Q.** What about the inhibition [19] of the same molecule?
**A.** inactive

**Q.** And the Activity (HepG2 [20])?
**A.** 3.5 µmol

**Q.** What about the Activity (HepG2 [21]) of the same molecule?
**A.** inactive

**Q.** What about the Activity (HepG2 [22]) of the same molecule?
**A.** inactive

**Q.** And the EC50 [23]?
**A.** 17.4 µM

**Q.** What about the inhibition [24] of the same molecule?
**A.** Active

**Q.** What about the Activity (HepG2 [25]) of the same molecule?
**A.** Active

**Q.** What about the Activity (HepG2 [26]) of the same molecule?
**A.** Non-toxic

**Q.** And the Activity (HepG2 [27])?
**A.** Active

**Q.** And the inhibition [28]?
**A.** inactive

**Q.** What about the Activity (HepG2 [29]) of the same molecule?
**A.** inactive

**Q.** What about the Activity (HepG2 [30]) of the same molecule?
**A.** inactive
